From patent US8093290B2, “Coolant solutions and compositions comprising the same” (Givaudan SA, priority 2002, dated 2012)

Tested on: oral cavity
Test: observed area of the oral cavity affected by the coolant effect
Conditions: in vivo

## CC1CCC(C(C)C)C(OC(=O)C(C)O)C1 (stereo not shown) [Menthyl lactate, menthyl lactate]
  area of the oral cavity targeted by the coolant effect: front/middle of the mouth
